As usually defined, the IC90 is the concentration at which the effect reaches the 90% level. Broadly, the MIC is the least concentration at which growth counts as inhibited.

Data on 6 compounds can be found in patent US7872115B2, “Reporter assay screens for protein targets in Saccharomyces cerevisiae” (Schering Corporation, priority 2004, dated 2011).

Values after ≈ are worked out from the molar mass of the structure shown. Read-outs that look alike come from different tables or passages of the source.

For test [1], the system named is yeast Y229-1 (PCDC48 (SEQ ID NO: 53)-PH05-Renlla Luciferase). Briefly: IC90 calculated from Renilla luciferase light output (baseline promoter reporter). The test is classed as cell-based, Saccharomyces cerevisiae. To be noted: 24 hours at 30° C., YPD, 1% DMSO.
For test [2] the test system is unchanged. Briefly: MIC determined visually. To be noted: minimum inhibitor concentration at which there is an approximately 90% drop in cell number relative to the uninhibited control. It is filed as cell-based, Saccharomyces cerevisiae.
Where [3] appears, read: Saccharomyces cerevisiae, read-out: MIC.
The mark [4] stands for this setting: Saccharomyces cerevisiae, inhibitor concentration at which there is a 90% drop in luciferase signal relative to the uninhibited control, read-out: IC90.

`CC[C@H](C)C[C@H](C)CCCCCCCCC(=O)N[C@H]1C[C@@H](O)[C@@H](NCCN)NC(=O)[C@@H]2[C@@H](O)CCN2C(=O)[C@H]([C@H](O)CCN)NC(=O)[C@H]([C@H](O)[C@@H](O)c2ccc(O)cc2)NC(=O)[C@@H]2C[C@@H](O)CN2C(=O)[C@H]([C@@H](C)O)NC1=O` [CSP, caspofungin]: in test [1] (Saccharomyces cerevisiae, […], read-out: IC90), the IC90 was 0.02 µg/mL (≈ 0.0183 µM). Further, the MIC in test [2] (setting [3]) amounted to 0.015 µg/mL (≈ 0.0137 µM).

In the case of `CN(C/C=C/C#CC(C)(C)C)Cc1cccc2ccccc12` [TRB, terbinafine], the 90% effect concentration (IC90) in test [1] (setting [4]) is 1.4 µg/mL (≈ 4.8 µM). The minimum inhibitory concentration (MIC) in test [2] (setting [3]) came out at 1.56 µg/mL (≈ 5.35 µM).

On to `C[C@@H](c1ncncc1F)[C@](O)(Cn1cncn1)c1ccc(F)cc1F` [VOR, voriconazole], for which the IC90 in test [1] (setting [4]) was 0.008 µg/mL (≈ 0.0229 µM). In test [2] (setting [3]), the minimal inhibitory concentration (MIC) was determined as 0.015 µg/mL (≈ 0.0429 µM).

On to `Nc1nc(=O)[nH]cc1F` [5FC, 5-fluorocytosine], for which the 90% effect concentration (IC90) in test [1] (setting [4]) was 1.9 µg/mL (≈ 14.7 µM). Further, the MIC in test [2] (setting [3]) was 2.5 µg/mL (≈ 19.4 µM).

Take `C[C@@H]1[C@H](O)[C@@H](C)/C=C/C=C/C=C/C=C/C=C/C=C/C=C/[C@H](O[C@@H]2O[C@H](C)[C@@H](O)[C@H](N)[C@@H]2O)C[C@@H]2O[C@](O)(C[C@@H](O)C[C@@H](O)[C@H](O)CC[C@@H](O)C[C@@H](O)CC(=O)O[C@H]1C)C[C@H](O)[C@H]2C(=O)O` [AMB, amphotericin B]: the IC90 in test [1] (inhibitor concentration at which there is a 90% drop in luciferase signal relative to the uninhibited control) is 0.3 µg/mL (≈ 0.325 µM). In addition, the MIC in test [2] came out at 0.3 µg/mL (≈ 0.325 µM).

For `OC(Cn1cncn1)(Cn1cncn1)c1ccc(F)cc1F` [FLU, fluconazole], the IC90 in test [1] (setting [4]) is 0.3 µg/mL (≈ 0.98 µM). Besides, in test [2] (setting [3]), the MIC was determined as 0.2 µg/mL (≈ 0.653 µM).
